From patent publication US20240018122A1, “PYRIDAZINYL AMINO DERIVATIVES AS ALK5 INHIBITORS” (CHIESI FARMACEUTICI S.P.A., priority 2020, published 2024)

Biological target: human ALK5 (Homo sapiens (Human), UniProt P36897)
Experiment: ADP-GLO Kinases assay, inhibitory activity on ALK5
Type: biochemical
Conditions: purified recombinant human ALK5 2.6 nM, TGFβ1 peptide substrate, 25° C, 150 min incubation, ADP-Glo detection; read-out: ALK5 IC50

Sequence of human ALK5 (P36897 80-503 limits assumed): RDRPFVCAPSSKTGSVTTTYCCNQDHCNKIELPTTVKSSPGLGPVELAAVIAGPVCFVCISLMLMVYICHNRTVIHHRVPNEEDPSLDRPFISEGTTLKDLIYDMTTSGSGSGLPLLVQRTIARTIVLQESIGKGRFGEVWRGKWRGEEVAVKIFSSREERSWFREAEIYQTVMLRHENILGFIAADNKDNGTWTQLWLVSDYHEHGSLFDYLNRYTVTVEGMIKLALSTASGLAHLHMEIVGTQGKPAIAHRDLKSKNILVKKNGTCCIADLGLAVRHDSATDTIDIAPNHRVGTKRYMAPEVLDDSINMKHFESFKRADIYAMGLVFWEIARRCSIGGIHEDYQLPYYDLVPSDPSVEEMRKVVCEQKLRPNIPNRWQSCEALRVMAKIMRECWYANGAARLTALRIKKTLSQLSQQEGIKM

For `CS(=O)(=O)CCN1CCN(CCC(=O)Nc2cc(Nc3cc(-c4cc(Cl)ccc4F)nnc3C(F)(F)F)ccn2)CC1` [Example 185], the IC50 was < 1 nM.
In the case of `N#CCCN1CCN(CCC(=O)Nc2cc(Nc3cc(-c4cc(Cl)ccc4F)nnc3C(F)(F)F)ccn2)CC1` [Example 186, N-(4-{[6-(5-chloro-2-fluorophenyl)-3-(trifluoromethyl)pyridazin-4-yl]amino}pyridin-2-yl)-3-[4-(2-cyanoethyl)piperazin-1-yl]propenamide], the IC50 is reported as < 1 nM.
For `COC(=O)CCc1nnc(-c2cc(Cl)ccc2F)cc1Nc1ccnc(NC(=O)CCN2CCN(C)CC2)c1` [Example 187, Methyl 3-[6-(5-Chloro-2-Fluorophenyl)-4-({2-[3-(4-Methylpiperazin-1-Yl)Propanamido]Pyridin-4-Yl}Amino)Pyridazin-3-Yl]Propanoate], the IC50 was < 1 nM.
In the case of `COC(=O)[C@H]1CC[C@@H](c2nnc(-c3cc(Cl)ccc3F)cc2Nc2ccnc(NC(=O)CCN3CCN(C)CC3)c2)CC1` [Example 188, methyl cis-4-(6-(5-chloro-2-fluorophenyl)-4-((2-(3-(4-methylpiperazin-1-yl)propanamido)pyridin-4-yl)amino)pyridazin-3-yl)cyclohexane-1-carboxylate], the IC50 is reported as 1 to 5 nM.
In the case of `COC(=O)[C@H]1CC[C@H](c2nnc(-c3cc(Cl)ccc3F)cc2Nc2ccnc(NC(=O)CCN3CCN(C)CC3)c2)CC1` [Example 189, methyl trans-4-(6-(5-chloro-2-fluorophenyl)-4-((2-(3-(4-methylpiperazin-1-yl)propanamido)pyridin-4-yl)amino)pyridazin-3-yl)cyclohexane-1-carboxylate], the IC50 is reported as < 1 nM.
For `Cc1nnc(-c2cc(C(F)F)ccc2F)cc1Nc1ccnc(NC(=O)CCN2CCN(C)CC2)c1` [Example 190, N-[4-({6-[5-(Difluoromethyl)-2-Fluorophenyl]-3-Methylpyridazin-4-Yl}Amino)Pyridin-2-Yl]-3-(4-Methylpiperazin-1-Yl)Propenamide], the IC50 was < 1 nM.
With `COC(=O)CCCc1nnc(-c2cc(Cl)ccc2F)cc1Nc1ccnc(NC(=O)CCN2CCN(C)CC2)c1` [Example 191, Methyl 4-(6-(5-Chloro-2-Fluorophenyl)-4-((2-(3-(4-Methylpiperazin-1-Yl)Propanamido)Pyridin-4-Yl)Amino)Pyridazin-3-Yl)] the IC50 was < 1 nM.
In the case of `Fc1ccc(Cl)cc1-c1cc(Nc2nc3cccnc3[nH]2)cnn1` [Example C1, 6-(5-chloro-2-fluorophenyl)-N-{3H-imidazo[4,5-b]pyridin-2-yl}pyridazin-4-amine, reference compound], the IC50 is reported as 6290 nM.
With `Nc1nccc(Nc2cnnc(-c3cc(Cl)ccc3F)c2)n1` [Example C2, N4-[6-(5-chloro-2-fluorophenyl)pyridazin-4-yl]pyrimidine-2,4-diamine, reference compound] the IC50 was 482 nM.
Compound `COC(=O)c1cccc(-c2cc(Nc3ccnc(N)c3)cnn2)c1F` [Example C3, reference compound] has an IC50 of 10000 nM.
